Values after ≈ are worked out from the molar mass of the structure shown.
Key:
[1] = system: S. aureus 340; test: MIC, broth microdilution; assay type: cell-based, Staphylococcus aureus; conditions: for MIC: Staphylococcus aureus, 340, 24 h; for MIC S. aureus 340: 24 h
Method: (§1) Antimicrobial activity of the compounds was studied by determination of minimal inhibitory concentrations (MIC) according to the NCCLS guidelines M7-A2 using the microbroth dilution methods. The bacteria strains were grown on trypticase soy agar (Becton Dickinson) at 37 °C for 24 h. Inocula were prepared in TCE (tryptone 0.1%, […], wt/vol) by ajusting the turbidity at 623 nm to obtain 1–3 10^5 CFU/mL.
(§2) Antimicrobial activities of the compounds were determined by using a broth microdilution method performed in sterile 96-well microplates. All compounds were solubilized in water at a concentration of 10 mM and were transferred to each microplate well in order to obtain a two-fold serial dilution in 100 µL of broth and 100 µL of inoculum containing 2–6 10^5 CFU of each bacterium were added to each well. Some wells were reserved for positive controls and inoculum viability.

[2] = system: S. aureus ATCC 25923; test: MIC, broth microdilution; assay type: cell-based, Staphylococcus aureus; conditions: ATCC strain; for MIC: Staphylococcus aureus, ATCC25923, 24 h; for MIC S. aureus 25923: 24 h
Method: as §1, §2

[3] = system: E. coli 1956; test: MIC, broth microdilution; assay type: cell-based, Escherichia coli; conditions: for MIC: Escherichia coli, 1956, 24 h; for MIC E. coli 1956: 24 h
Method: as §1, §2

[4] = system: E. coli ATCC 25922; test: MIC, broth microdilution; assay type: cell-based, Escherichia coli; conditions: ATCC strain; for MIC: Escherichia coli, ATCC25922, 24 h; for MIC E. coli 25922: 24 h
Method: as §1, §2

[5] = system: Chinese hamster Ovary cells (CHO-K1); test: Cytotoxicity assay (WST-1 / Neutral Red); assay type: cell-based; conditions: 24-h incubation; for IC50: Cricetulus griseus, 24 h
Method: The cytotoxic activities of compounds were assessed on Chinese hamster Ovary cells (CHO-K1) provided from ATCC-LGC Standards Sarl (Molsheim, France). Cells were maintained in Mc Coy’s 5A (CHO) medium supplemented with 10% bovine calf serum, 2 mM glutamine, and 100 U mL^−1/10 µg mL^−1 penicillin/streptomycin mixtures. For the cytotoxicity experiments, they were seeded in 96-well plates and incubated at 37 °C in humidified atmosphere containing 5% CO2 overnight, then concentrations of compounds were incorporated in triplicate cultures. After a 24-h incubation period at 37 °C, cells were submitted to three successive washes in phosphate buffer saline (PBS) and cell viability was evaluated by two different vital dyes: • i. A first set of cell cultures was incubated in PBS containing 10% WST-1 for 30 min at 37 °C, 5% CO2. Cell viability was evaluated by the assessment of WST-1 absorbance at 450 nm in a microplate spectrophotometer. • ii. A second set of cell cultures was placed into Neutral Red medium (50 μg mL^−1 Neutral Red in complete medium) and incubated for 3 h at 37 °C, 5% CO2. Then the Neutral Red medium was removed and the distaining solution (50% ethanol, 1% acetic acid, 49% distilled water; 50 µL per well) was added into the wells. The plates were shaken for 15–20 min at room temperature in the dark. Cell viability was evaluated by the assessment of absorbance at 540 nm in a microplate spectrophotometer.
Results were expressed as percentages of cell viability about the control (culture medium-only), which corresponded to 100% cell viability. Dose-response curves were calculated by non-linear regression analysis with TableCurve 2D software (V 5.0.1) (Systat Software Inc., San Jose, CA, USA). The Inhibitory Concentration 50% (IC50) was defined as the concentration of compounds that induced a 50% decrease of viable cells.

[6] = system: E. faecalis ATCC29212; test: MIC, broth microdilution; assay type: cell-based, Enterococccus faecalis; conditions: ATCC strain; for MIC: Enterococcus faecalis, ATCC29212, 24 h, read-out: MIC E. faecalis 29212; for MIC E. faecalis 29212: 24 h
Method: as §1, §2

[7] = system: S. intermedius 1051997; test: MIC, broth microdilution; assay type: cell-based, Staphylococcus intermedius; conditions: for MIC: Staphylococcus intermedius, 1051997, 24 h; for MIC / MIC S. intermedius 1051997: 24 h
Method: as §1, §2

[8] = system: P. aeruginosa 1051575; test: MIC, broth microdilution; assay type: cell-based, Pseudomonas aeruginosa; conditions: 24 h; for MIC: Pseudomonas aeruginosa, 1051575, 24 h
Method: as §1, §2

[9] = system: P. aeruginosa ATCC 27853; test: MIC, broth microdilution; assay type: cell-based, Pseudomonas aeruginosa; conditions: ATCC strain; for MIC: Pseudomonas aeruginosa, ATCC27853, 24 h; for MIC P. aeruginosa 27853: 24 h
Method: as §1, §2

Compound | MIC [1] [µg/mL] | MIC [2] [µg/mL] | MIC [3] [µg/mL] | MIC [4] [µg/mL] | IC50 [5] [µg/mL] | MIC [6] [µg/mL] | MIC [7] [µg/mL] | MIC [8] [µg/mL] | MIC [9] [µg/mL] | MIC P. aeruginosa 1051575 [8] [µg/mL] | further results
CC(C)OC(=O)CCC(C)C1CCC2C3CCC4CC(NCCCNCCCCN)CCC4(C)C3CCC12C (stereo not shown) [Claramine E03] | 7 (≈ 12.8 µM) | 3 (≈ 5.5 µM) | 14 (≈ 25.6 µM) | 100 (≈ 183 µM) | 56 (≈ 103 µM) | 7 (≈ 12.8 µM) | 2 (≈ 3.66 µM) | 7 (≈ 12.8 µM) | 27 (≈ 49.5 µM) |  | 
CC(C)OC(=O)CCC(C)C1CCC2C3CCC4CC(NCCCNCCCNCCCN)CCC4(C)C3CCC12C (stereo not shown) [Claramine E02] | 7 (≈ 11.9 µM) | 7 (≈ 11.9 µM) | 7 (≈ 11.9 µM) | 14 (≈ 23.8 µM) | 15 (≈ 25.5 µM) | 14 (≈ 23.8 µM) | 1 (≈ 1.7 µM) | 2 (≈ 3.4 µM) | 28 (≈ 47.5 µM) |  | 
CC(C)OC(=O)CCC(C)C1CCC2C3C(O)CC4CC(NCCCNCCCCN)CCC4(C)C3CCC12C (stereo not shown) [Claramine C27] |  |  |  |  |  |  |  |  |  | 56 (≈ 99.7 µM) | MIC S. aureus 340 [1]: 7 µg/mL (≈ 12.5 µM); MIC S. aureus 25923 [2]: 7 µg/mL (≈ 12.5 µM); MIC E. coli 1956 [3]: 28 µg/mL (≈ 49.8 µM); MIC E. coli 25922 [4]: 56 µg/mL (≈ 99.7 µM); IC50 CHO [5]: 100 µg/mL (≈ 178 µM); MIC E. faecalis 29212 [6]: 28 µg/mL (≈ 49.8 µM); MIC S. intermedius 1051997 [7]: 7 µg/mL (≈ 12.5 µM); MIC P. aeruginosa 27853 [9]: 56 µg/mL (≈ 99.7 µM)
CC(C)OC(=O)CCC(C)C1CCC2C3C(O)CC4CC(NCCCN5CCN(CCCN)CC5)CCC4(C)C3CCC12C (stereo not shown) [Claramine C24] |  | 8 (≈ 13 µM) | 30 (≈ 48.6 µM) | 15 (≈ 24.3 µM) |  | 15 (≈ 24.3 µM) | 4 (≈ 6.48 µM) |  | 30 (≈ 48.6 µM) | 30 (≈ 48.6 µM) | MIC S. aureus 340 [1]: 8 µg/mL (≈ 13 µM)
CC[C@H]1OC(=O)[C@H](C)[C@@H](O[C@H]2C[C@@](C)(OC)[C@@H](O)[C@H](C)O2)[C@H](C)[C@@H](O[C@@H]2O[C@H](C)C[C@H](N(C)C)[C@H]2O)[C@](C)(O)C[C@@H](C)C(=O)[C@H](C)[C@@H](O)[C@]1(C)O [Ery, Erythromycine, reference compound] | 1 (≈ 1.36 µM) | 1 (≈ 1.36 µM) |  |  |  | 1 (≈ 1.36 µM) | 1 (≈ 1.36 µM) |  |  |  | 
COC(=O)CCC(C)C1CCC2C3C(O)CC4CC(NCCCNCCCN)CCC4(C)C3CCC12C (stereo not shown) [Claramine C04] | 7 (≈ 13.5 µM) |  |  |  | 68 (≈ 131 µM) |  |  | 26 (≈ 50 µM) |  |  | 
CC(C)OC(=O)CCC(C)C1CCC2C3CCC4CC(NCCN(CCN)CCN)CCC4(C)C3CC(O)C12C (stereo not shown) [Claramine A29] | 14 (≈ 24.9 µM) |  |  |  | 141 (≈ 250 µM) |  |  | 56 (≈ 99.5 µM) |  |  | 
CC(C)OC(=O)CCC(C)C1CCC2C3C(O)CC4CC(NCCCNCCCN)CCC4(C)C3CCC12C (stereo not shown) [Claramine C19] |  | 7 (≈ 12.8 µM) | 14 (≈ 25.6 µM) | 14 (≈ 25.6 µM) |  | 4 (≈ 7.3 µM) | 2 (≈ 3.65 µM) |  | 28 (≈ 51.1 µM) | 14 (≈ 25.6 µM) | MIC S. aureus 340 [1]: 2 µg/mL (≈ 3.65 µM); Therapeutic Ratio (TR) ([7]; IC50 (CHO)/MIC, S. intermedius): 65–114
CCOC(=O)CCC(C)C1CCC2C3C(O)CC4CC(NCCCNCCCCNCCCN)CCC4(C)C3CCC12C (stereo not shown) [Claramine C21] | 4 (≈ 6.61 µM) | 4 (≈ 6.61 µM) | 30 (≈ 49.6 µM) | 15 (≈ 24.8 µM) | 45 (≈ 74.4 µM) | 2 (≈ 3.31 µM) | 4 (≈ 6.61 µM) | 15 (≈ 24.8 µM) | 15 (≈ 24.8 µM) |  | 
CC(C)OC(=O)CCC(C)C1CCC2C3C(O)CC4CC(NCCCNCCCCNCCCN)CCC4(C)C3CC(O)C12C (stereo not shown) [Claramine B12] | 8 (≈ 12.6 µM) | 8 (≈ 12.6 µM) | 62 (≈ 97.6 µM) | 4 (≈ 6.3 µM) | 48 (≈ 75.6 µM) | 32 (≈ 50.4 µM) | 4 (≈ 6.3 µM) | 8 (≈ 12.6 µM) | 16 (≈ 25.2 µM) |  | 
COC(=O)CCC(C)C1CCC2C3C(O)CC4CC(NCCCNCCCNCCCN)CCC4(C)C3CCC12C (stereo not shown) [Claramine D02] |  |  |  |  |  |  |  |  |  | 7 (≈ 12.1 µM) | MIC S. aureus 340 [1]: 4 µg/mL (≈ 6.93 µM); MIC S. aureus 25923 [2]: 7 µg/mL (≈ 12.1 µM); MIC E. coli 1956 [3]: 60 µg/mL (≈ 104 µM); MIC E. coli 25922 [4]: 4 µg/mL (≈ 6.93 µM); IC50 CHO [5]: 20 µg/mL (≈ 34.7 µM); MIC E. faecalis 29212 [6]: 30 µg/mL (≈ 52 µM); MIC S. intermedius 1051997 [7]: 1 µg/mL (≈ 1.73 µM); MIC P. aeruginosa 27853 [9]: 30 µg/mL (≈ 52 µM)
Colistine [reference compound] |  |  |  |  |  |  |  |  |  | 0.5 | MIC E. coli 1956 [3]: 0.5 µg/mL; MIC E. coli 25922 [4]: 0.5 µg/mL; MIC P. aeruginosa 27853 [9]: 0.5 µg/mL
CC(C)OC(=O)CCC(C)C1CCC2C3CCC4CC(NCCCNCCCN)CCC4(C)C3CCC12C (stereo not shown) [Claramine E04] | 3 (≈ 5.64 µM) |  |  |  | 13 (≈ 24.4 µM) |  |  | 3 (≈ 5.64 µM) |  |  | 
COC(=O)CCC(C)C1CCC2C3C(O)CC4CC(NCCCNCCCN)CCC4(C)C3CC(O)C12C (stereo not shown) [Claramine B02] | 7 (≈ 13.1 µM) |  |  |  | 27 (≈ 50.4 µM) |  |  | 13 (≈ 24.3 µM) |  |  | 

— article PMC12693182, “Synthesis and QSAR Studies of Claramine Derivatives, a New Class of Broad-Spectrum Antimicrobial Agents” (Molecules, 2025)
